Active and inactive are the calls of the source. The rule behind the calls is not given here.
Experiments:
[1] = target: T1, Exodeoxyribonuclease V (Escherichia coli (strain K12), UniProt P04993+P07648+P08394); experiment: E. coli RecBCD inhibitors, dose response, counter-screen for AddAB inhibitor project, absorbance, V66 E. coli, mutant T4 phage (AID 492957); type: functional, cell-based, Escherichia coli str. K-12 substr. MG1655
T1 sequence (P04993 whole entry): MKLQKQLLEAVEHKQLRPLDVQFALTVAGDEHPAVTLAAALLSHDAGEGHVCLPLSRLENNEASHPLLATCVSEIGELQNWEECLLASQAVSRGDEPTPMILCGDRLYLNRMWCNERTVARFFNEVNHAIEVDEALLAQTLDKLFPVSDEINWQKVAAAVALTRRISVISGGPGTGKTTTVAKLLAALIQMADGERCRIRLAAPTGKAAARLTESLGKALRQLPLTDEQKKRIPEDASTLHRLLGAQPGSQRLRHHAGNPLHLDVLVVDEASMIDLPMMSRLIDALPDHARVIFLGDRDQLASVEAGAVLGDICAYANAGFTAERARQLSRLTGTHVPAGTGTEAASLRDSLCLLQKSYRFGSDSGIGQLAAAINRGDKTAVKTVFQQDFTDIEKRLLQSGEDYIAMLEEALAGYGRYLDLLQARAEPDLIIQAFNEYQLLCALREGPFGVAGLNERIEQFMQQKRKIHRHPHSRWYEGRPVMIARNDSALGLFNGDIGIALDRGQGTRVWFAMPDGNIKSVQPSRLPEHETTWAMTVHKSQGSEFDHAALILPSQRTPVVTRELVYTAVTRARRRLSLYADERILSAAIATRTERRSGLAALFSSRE
T1 sequence (P07648 whole entry): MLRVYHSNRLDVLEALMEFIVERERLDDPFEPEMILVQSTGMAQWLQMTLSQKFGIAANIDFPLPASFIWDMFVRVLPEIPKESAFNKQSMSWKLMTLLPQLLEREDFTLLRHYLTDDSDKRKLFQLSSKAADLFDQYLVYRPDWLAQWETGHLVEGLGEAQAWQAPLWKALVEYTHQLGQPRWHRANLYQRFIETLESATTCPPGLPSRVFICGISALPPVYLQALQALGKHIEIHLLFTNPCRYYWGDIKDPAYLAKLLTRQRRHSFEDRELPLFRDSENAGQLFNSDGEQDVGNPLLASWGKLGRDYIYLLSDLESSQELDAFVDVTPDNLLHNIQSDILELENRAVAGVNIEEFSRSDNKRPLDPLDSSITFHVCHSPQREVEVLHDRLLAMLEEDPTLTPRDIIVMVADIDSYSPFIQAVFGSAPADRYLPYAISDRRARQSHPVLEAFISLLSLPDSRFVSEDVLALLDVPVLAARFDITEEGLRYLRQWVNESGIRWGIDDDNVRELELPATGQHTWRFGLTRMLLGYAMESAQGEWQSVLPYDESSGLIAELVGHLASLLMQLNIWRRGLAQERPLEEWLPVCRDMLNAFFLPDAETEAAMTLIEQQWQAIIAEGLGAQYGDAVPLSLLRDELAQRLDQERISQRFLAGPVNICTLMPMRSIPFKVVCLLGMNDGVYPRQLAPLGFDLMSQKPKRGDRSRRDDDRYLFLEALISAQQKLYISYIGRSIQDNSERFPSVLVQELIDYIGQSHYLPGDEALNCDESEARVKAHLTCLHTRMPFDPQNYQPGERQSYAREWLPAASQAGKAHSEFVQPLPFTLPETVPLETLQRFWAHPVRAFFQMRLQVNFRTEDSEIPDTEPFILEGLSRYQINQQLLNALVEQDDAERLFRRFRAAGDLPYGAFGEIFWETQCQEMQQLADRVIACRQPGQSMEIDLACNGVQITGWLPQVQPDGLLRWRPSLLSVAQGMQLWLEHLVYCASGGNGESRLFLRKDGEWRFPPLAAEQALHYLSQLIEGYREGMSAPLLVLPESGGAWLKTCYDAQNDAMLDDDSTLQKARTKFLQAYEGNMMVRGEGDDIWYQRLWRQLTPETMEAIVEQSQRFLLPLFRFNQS
T1 sequence (P08394 whole entry): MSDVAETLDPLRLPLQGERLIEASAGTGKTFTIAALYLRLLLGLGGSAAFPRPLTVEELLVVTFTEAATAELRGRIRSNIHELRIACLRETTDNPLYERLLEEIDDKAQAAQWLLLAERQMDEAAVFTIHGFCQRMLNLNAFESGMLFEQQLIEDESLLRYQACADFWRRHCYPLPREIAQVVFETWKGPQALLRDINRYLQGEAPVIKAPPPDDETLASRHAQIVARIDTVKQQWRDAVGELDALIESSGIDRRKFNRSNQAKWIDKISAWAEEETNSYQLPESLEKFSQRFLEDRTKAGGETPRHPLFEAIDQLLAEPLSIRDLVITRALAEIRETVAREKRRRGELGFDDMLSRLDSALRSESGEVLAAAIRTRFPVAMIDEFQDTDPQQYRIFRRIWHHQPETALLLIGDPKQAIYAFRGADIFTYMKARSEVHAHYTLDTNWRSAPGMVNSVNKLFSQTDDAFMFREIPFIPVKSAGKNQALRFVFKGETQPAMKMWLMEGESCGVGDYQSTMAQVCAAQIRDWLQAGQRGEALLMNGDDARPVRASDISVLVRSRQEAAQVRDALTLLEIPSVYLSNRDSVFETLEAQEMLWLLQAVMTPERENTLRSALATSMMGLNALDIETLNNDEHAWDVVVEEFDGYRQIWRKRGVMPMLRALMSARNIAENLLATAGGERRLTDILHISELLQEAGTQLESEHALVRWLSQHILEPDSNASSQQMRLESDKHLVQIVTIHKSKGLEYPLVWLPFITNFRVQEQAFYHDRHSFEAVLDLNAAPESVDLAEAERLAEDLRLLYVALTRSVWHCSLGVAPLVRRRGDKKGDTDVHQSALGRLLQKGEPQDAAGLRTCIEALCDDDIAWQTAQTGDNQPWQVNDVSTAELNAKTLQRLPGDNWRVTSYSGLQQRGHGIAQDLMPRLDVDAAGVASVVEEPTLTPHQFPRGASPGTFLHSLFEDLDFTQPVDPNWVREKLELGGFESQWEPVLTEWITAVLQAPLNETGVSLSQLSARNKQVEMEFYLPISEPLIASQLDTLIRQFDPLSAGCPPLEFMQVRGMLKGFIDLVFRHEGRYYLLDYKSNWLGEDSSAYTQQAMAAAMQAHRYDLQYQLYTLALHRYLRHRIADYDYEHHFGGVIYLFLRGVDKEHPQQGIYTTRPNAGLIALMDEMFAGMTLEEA

[2] = ZM109 Env clade C HIV-1 fusion inhibitors, dose response, HeLa effector, CEM target cells, luciferase, cherry-pick (AID 652058); type: functional, cell-based

Structure (SMILES) | IC50 [1] | AC50 [2]
CCC(=O)NC(c1ccc(OC)cc1)c1cc(Cl)c2cccnc2c1O (configuration not stated) | > 119 µM (inactive) | 
CCCCCCCCCCn1c2c(c(=N)c3c1CCC3)CCC2 |  | 1.7 µM (active)

— ChEMBL document CHEMBL1201862, “PubChem BioAssay data set” (2004)
